{"source": "patent US20210024542A1", "about": "(Torcept Therapeutics, Inc., priority 2018, published 2021)", "key": {"[1]": {"assay": "Whole blood concentrations in mice after IP dosing (LC-MS/MS)", "format": "in vivo", "experimental": "These determinations were made using protein precipitation, liquid chromatography (LC), and mass spectrometry (MS/MS). Ten μl aliquots of whole blood and matrix calibration standards were distributed in a 96-well plate; 10 μl aliquots of blank matrix for matrix blanks and control blanks were included as controls. Ten μl of water was added to each sample followed by vortexing. One hundred sixty […] of internal standard was added to each sample except the matrix blanks; 160 μl 70:30 water:acetonitrile (ACN) was added to matrix blanks. This was followed by a […]. One hundred fifty μl of the resultant supernatant was then transferred to a new 96-well plate and the samples blown to dryness at 35° C. The resultant product was then reconstituted with 90 μl ACN."}, "[2]": {"settings": "mouse, in vivo, ip, 10 mg/kg", "text": "(§1) Tumor growth was monitored daily. […] Significance was set at p≤0.05."}, "[3]": {"settings": "Day 30, 10 mg/kg IP QD", "text": "as §1"}, "[4]": {"settings": "2 mg/kg IP QD x 3 days, Day 1, 6.00 hrs"}, "[5]": {"settings": "2 mg/kg IP QD x 3 days, Day 1, 24.0 hrs"}, "[6]": {"settings": "2 mg/kg IP QD x 3 days, Day 2, 1.00 hrs"}, "[7]": {"settings": "2 mg/kg IP QD x 3 days, Day 2, 2.00 hrs"}, "[8]": {"settings": "2 mg/kg IP QD x 3 days, Day 2, 6.00 hrs"}, "[9]": {"settings": "2 mg/kg IP QD x 3 days, Day 2, 24.0 hrs"}, "[10]": {"settings": "2 mg/kg IP QD x 3 days, Day 3, 1.00 hrs"}, "[11]": {"settings": "2 mg/kg IP QD x 3 days, Day 3, 2.00 hrs"}, "[12]": {"settings": "2 mg/kg IP QD x 3 days, Day 3, 6.00 hrs"}, "[13]": {"settings": "2 mg/kg IP QD x 3 days, Day 3, 24.0 hrs"}, "[14]": {"settings": "10 mg/kg IP QD x 3 days, Day 1, 1.00 hrs"}, "[15]": {"settings": "10 mg/kg IP QD x 3 days, Day 1, 2.00 hrs"}, "[16]": {"settings": "10 mg/kg IP QD x 3 days, Day 1, 6.00 hrs"}, "[17]": {"settings": "10 mg/kg IP QD x 3 days, Day 1, 24.0 hrs"}, "[18]": {"settings": "10 mg/kg IP QD x 3 days, Day 2, 2.00 hrs"}, "[19]": {"settings": "10 mg/kg IP QD x 3 days, Day 2, 24.0 hrs"}}, "note": "Values joined by “and” are separate entries in the source; they are usually repeats but may differ in a detail not shown here. Equal values may be shown once."}
{"smiles": "CO[C@H]1C[C@@H]2CC[C@@H](C)[C@@](O)(O2)C(=O)C(=O)N2CCCC[C@H]2C(=O)O[C@H]([C@H](C)C[C@@H]2C[C@@H]3C[C@H]2C[C@H]3O)CC(=O)[C@H](C)/C=C(\\C)[C@@H](O)[C@@H](OC)C(=O)[C@H](C)C[C@H](C)/C=C/C=C/C=C/1C", "note": "[Formula I, 37R-hydroxynorbornylrapamycin]", "values": [{"measurement": "Concentration in Mouse Whole Blood, individual animals 1-3", "setting": "[1]; 2 mg/kg IP QD x 3 days, Day 1, 2.00 hrs", "result": "668 ng/mL and 392 ng/mL and 233 ng/mL"}, {"measurement": "Concentration in Mouse Whole Blood, Mean", "setting": "[1]; [4]", "result": 486, "unit": "ng/mL"}, {"measurement": "Concentration in Mouse Whole Blood, individual animals 1-3", "setting": "[1]; [4]", "result": "468 ng/mL and 646 ng/mL and 344 ng/mL"}, {"measurement": "Concentration in Mouse Whole Blood, Mean", "setting": "[1]; [5]", "result": 36.6, "unit": "ng/mL"}, {"measurement": "Concentration in Mouse Whole Blood, individual animals 1-3", "setting": "[1]; [5]", "result": "35.8 ng/mL and 48.0 ng/mL and 26.0 ng/mL"}, {"measurement": "Concentration in Mouse Whole Blood, Mean", "setting": "[1]; [6]", "result": 569, "unit": "ng/mL"}, {"measurement": "Concentration in Mouse Whole Blood, individual animals 1-3", "setting": "[1]; [6]", "result": "682 ng/mL and 670 ng/mL and 354 ng/mL"}, {"measurement": "Concentration in Mouse Whole Blood, Mean", "setting": "[1]; [7]", "result": 814, "unit": "ng/mL"}, {"measurement": "Concentration in Mouse Whole Blood, individual animals 1-3", "setting": "[1]; [7]", "result": "746 ng/mL and 841 ng/mL and 854 ng/mL"}, {"measurement": "Concentration in Mouse Whole Blood, Mean", "setting": "[1]; [8]", "result": 552, "unit": "ng/mL"}, {"measurement": "Concentration in Mouse Whole Blood, individual animals 1-3", "setting": "[1]; [8]", "result": "537 ng/mL and 803 ng/mL and 315 ng/mL"}, {"measurement": "Concentration in Mouse Whole Blood, Mean", "setting": "[1]; [9]", "result": 47.8, "unit": "ng/mL"}, {"measurement": "Concentration in Mouse Whole Blood, individual animals 1-3", "setting": "[1]; [9]", "result": "26.8 ng/mL and 76.5 ng/mL and 40.1 ng/mL"}, {"measurement": "Concentration in Mouse Whole Blood, Mean", "setting": "[1]; [10]", "result": 946, "unit": "ng/mL"}, {"measurement": "Concentration in Mouse Whole Blood, individual animals 1-3", "setting": "[1]; [10]", "result": "968 ng/mL and 885 ng/mL and 986 ng/mL"}, {"measurement": "Concentration in Mouse Whole Blood, Mean", "setting": "[1]; [11]", "result": 583, "unit": "ng/mL"}, {"measurement": "Concentration in Mouse Whole Blood, individual animals 1-3", "setting": "[1]; [11]", "result": "760 ng/mL and 707 ng/mL and 282 ng/mL"}, {"measurement": "Concentration in Mouse Whole Blood, Mean", "setting": "[1]; [12]", "result": 630, "unit": "ng/mL"}, {"measurement": "Concentration in Mouse Whole Blood, individual animals 1-3", "setting": "[1]; [12]", "result": "560 ng/mL and 860 ng/mL and 469 ng/mL"}, {"measurement": "Concentration in Mouse Whole Blood, Mean", "setting": "[1]; [13]", "result": 62.5, "unit": "ng/mL"}, {"measurement": "Concentration in Mouse Whole Blood, individual animals 1-3", "setting": "[1]; [13]", "result": "45.7 ng/mL and 92.2 ng/mL and 49.7 ng/mL"}, {"measurement": "Concentrations in whole blood over time (in words)", "setting": "[1]; 2 mg/kg or 10 mg/kg IP QD for three days", "result": "sufficient concentrations in whole blood over time"}, {"measurement": "Concentration in Mouse Whole Blood, Mean", "setting": "[1]; [14]", "result": 778, "unit": "ng/mL"}, {"measurement": "Concentration in Mouse Whole Blood, individual animals 4-6", "setting": "[1]; [14]", "result": "744 ng/mL and 736 ng/mL and 853 ng/mL"}, {"measurement": "Concentration in Mouse Whole Blood, Mean", "setting": "[1]; [15]", "result": 2340, "unit": "ng/mL"}, {"measurement": "Concentration in Mouse Whole Blood, individual animals 4-6", "setting": "[1]; [15]", "result": "2390 ng/mL and 2040 ng/mL and 2590 ng/mL"}, {"measurement": "Concentration in Mouse Whole Blood, Mean", "setting": "[1]; [16]", "result": 1726, "unit": "ng/mL"}, {"measurement": "Concentration in Mouse Whole Blood, individual animals 4-6", "setting": "[1]; [16]", "result": "1970 ng/mL and 2300 ng/mL and 908 ng/mL"}, {"measurement": "Concentration in Mouse Whole Blood, Mean", "setting": "[1]; [17]", "result": 273, "unit": "ng/mL"}, {"measurement": "Concentration in Mouse Whole Blood, individual animals 4-6", "setting": "[1]; [17]", "result": "357 ng/mL and 320 ng/mL and 141 ng/mL"}, {"measurement": "Concentration in Mouse Whole Blood, individual animals 4-6", "setting": "[1]; 10 mg/kg IP QD x 3 days, Day 2, 1.00 hrs", "result": "AQL (Original value above quantitation limit (1000 ng/mL)) and 3130 ng/mL and 739 ng/mL"}, {"measurement": "Concentration in Mouse Whole Blood, Mean", "setting": "[1]; 10 mg/kg IP QD x 3 days, Day 2, 1.00 hrs, one animal AQL", "result": 1935, "unit": "ng/mL"}, {"measurement": "Concentration in Mouse Whole Blood, Mean", "setting": "[1]; [18]", "result": 2820, "unit": "ng/mL"}, {"measurement": "Concentration in Mouse Whole Blood, individual animals 4-6", "setting": "[1]; [18]", "result": "3060 ng/mL and 2660 ng/mL and 2740 ng/mL"}, {"measurement": "Concentration in Mouse Whole Blood, individual animals 4-6", "setting": "[1]; 10 mg/kg IP QD x 3 days, Day 2, 6.00 hrs", "result": "AQL (Original value above quantitation limit (1000 ng/mL)) (2×) and 811 ng/mL"}, {"measurement": "Concentration in Mouse Whole Blood, Mean", "setting": "[1]; 10 mg/kg IP QD x 3 days, Day 2, 6.00 hrs, two animals AQL", "result": 811, "unit": "ng/mL"}, {"measurement": "Concentration in Mouse Whole Blood, Mean", "setting": "[1]; [19]", "result": 335, "unit": "ng/mL"}, {"measurement": "Concentration in Mouse Whole Blood, individual animals 4-6", "setting": "[1]; [19]", "result": "335 ng/mL and 472 ng/mL and 199 ng/mL"}, {"measurement": "Concentration in Mouse Whole Blood, individual animals 4-6", "setting": "[1]; 10 mg/kg IP QD x 3 days, Day 3, 1.00 hrs", "result": "3490 ng/mL and 3220 ng/mL"}, {"measurement": "Concentration in Mouse Whole Blood, individual animals 4-6", "setting": "[1]; 10 mg/kg IP QD x 3 days, Day 3, 2.00 hrs", "result": "2530 ng/mL and 2680 ng/mL and 482 ng/mL"}, {"measurement": "Concentration in Mouse Whole Blood, individual animals 4-6", "setting": "[1]; 10 mg/kg IP QD x 3 days, Day 3, 6.00 hrs", "result": "966 ng/mL and 2410 ng/mL and 773 ng/mL"}, {"measurement": "Concentration in Mouse Whole Blood, individual animals 4-6", "setting": "[1]; 10 mg/kg IP QD x 3 days, Day 3, 24.0 hrs", "result": "548 ng/mL and 276 ng/mL"}, {"measurement": "Body Wt. % Δ from Baseline, Mean", "setting": "[2]", "result": 14.24, "unit": "%"}, {"measurement": "Body Wt. % Δ from Baseline, Median", "setting": "[2]", "result": 14.91, "unit": "%"}, {"measurement": "Percent Survival", "setting": "[3]", "result": 100, "unit": "%"}]}
